Experiment [1] deals with TH receptor β (TRβ) gene expression. The experiment can be described thus: TRβ transcript levels by RT-QPCR in XTC-2 cells cultured in serum-containing medium. The format is cell-based, Xenopus laevis. As for the experimental part:
The indicated cell types were plated at a density of 2×10^4 cells/cm^2 and cultured in the presence of medium containing either 10% charcoal stripped fetal calf serum (stripped) or Rana tadpole serum (RTS). […] All values were normalized to an invariant L8 ribosomal protein transcript. A) Relative expression levels of the control cells. B) Fold change of the TRβ transcript levels relative to the control, uninduced cells in accordance with an embodiment. […] XTC cells were plated in triplicate at a density of 2×10^4 cells/cm^2 and cultured in the presence of medium containing either 10% charcoal stripped fetal calf serum (CS) or Rana tadpole serum from different premetamorphic (VI, XII) or prometamorphic (XV, XVIII) stages (Taylor and Kollros, 1946). […] All values were normalized to an invariant L8 ribosomal protein transcript. The relative expression levels are indicated with vehicle control (white bars) and T3-exposed (black bars) cells in accordance with an embodiment. FIG. 3 is evidence that serum from other species is suitable for use in thyroid hormone induction experiments. XTC cells were plated at a density of 2×10^4 cells/cm^2 and cultured in the presence of medium containing either 10% charcoal stripped fetal calf serum (stripped), serum from salmon Parr (salmon), or neotenic salamanders (salamander). […] All values were normalized to an invariant L8 ribosomal protein transcript. […]

Experiment [2] concerns growth hormone (GH) mRNA transcript. Put plainly: GH transcript levels by RT-QPCR in GH3 cells cultured in serum-containing medium. It counts as cell-based, rat. Conditions: 10 nM T3, 2 days, relative to uninduced control. The protocol: (§1) The indicated cell types were plated at a density of 2×10^4 cells/cm^2 and cultured in the presence of medium containing either 10% charcoal stripped fetal calf serum (stripped) or Rana tadpole serum (RTS). […] All values were normalized to an invariant L8 ribosomal protein transcript. A) Relative expression levels of the control cells. B) Fold change of the GH transcript levels relative to the control, uninduced cells in accordance with an embodiment. […] The expression of TRβ and GH gene transcripts was analyzed using a MX4000 real-time quantitative polymerase chain reaction system (Stratagene, La Jolla, Calif., USA) as described previously (Crump, Werry et al. 2002) using gene specific primers (for TRβ: UP primer 5'-[NT]; DOWN primer 5'-[NT]; for GH: UP primer 5'-[NT]; DOWN primer 5'-[NT] The annealing temperature was 55° C. A standard curve for each primer pair was generated using the appropriate quantified plasmid DNA containing the target gene sequence. Quadruplicate reactions were performed for each sample and data were averaged and normalized to the expression of the control gene encoding the ribosomal protein L8.

Experiment [3] has as its system TH receptor β (TRβ) gene expression. Put plainly: TRβ transcript levels by RT-QPCR in XLA cells cultured in serum-containing medium. It counts as cell-based, Xenopus laevis. Conditions: 10 nM T3, 2 days, relative to uninduced control. The protocol:
as §1, with “the TRβ” for “the GH”, “L8. […] Total RNA was isolated from these cells and analyzed for the levels of the TRβ gene by reverse transcription quantitative real time polymerase chain reaction (RT-QPCR). […]” for “L8.”

Experiment [4] has as its system rat pituitary GH3 cells. The experiment can be described thus: TH-induced proliferation of GH3 cells, hemocytometer cell count. It counts as cell-based. Conditions: 10 nM T3, all three sera, relative to vehicle controls. The protocol: FIG. 5 is evidence that serum from other species is suitable for use in thyroid hormone induction experiments with mammalian cells. 3.5×10^4 rat pituitary GH3 cells were plated in duplicate at a density of 2×10^4 cells/cm^2 and cultured in the presence of medium containing either 10% charcoal stripped fetal calf serum (stripped), serum from salmon parr (salmon), or Rana catesbeiana tadpoles (RTS). After 2 days, 10 nM T3 or vehicle control was added and the cells were counted 5 days later after trypsinization on a hemocytometer. The total cell numbers are indicated with vehicle control (white bars) and T3-exposed (black bars) cells in accordance with an embodiment.
Two frog cell lines, XTC-2 cells (Machuca and Tata 1992) and XLA cells (Kanamori and Brown 1993) were obtained from J. Tata and D. Brown, respectively and grown in 70% Liebovitz medium supplemented with 10% bovine growth serum, 100 µg/ml gentamycin sulfate and 10 mM Hepes, pH 7.5 (GIBCO/Invitrogen, Grand Island, N.Y.). These cells were grown at 25° C. in air. The rat pituitary tumor GH3 cell line was obtained from R. T. Zoeller and maintained in Kaighn's modification of Ham's F 12 medium with 2 mM glutamine, 1.5 g/L sodium bicarbonate, 10% fetal bovine serum, 1,000 U/ml penicillin, and 1 mg/ml streptomycin at 37° C. in 5% CO2. […]

Each structure is given as a SMILES string.

Take `N[C@@H](Cc1cc(I)c(Oc2ccc(O)c(I)c2)c(I)c1)C(=O)O` [T3, 3,5,3′-triiodothyronine]: the “TRβ levels after addition of T3” value in experiment [1] (XTC cells, 10 nM T3, in charcoal stripped serum or RTS of stages VI, XII, XV, XVIII (all cases)) is “robust elevation”. In addition, the “TRβ mRNA levels on exposure to T3” value in experiment [1] (XTC-2 cells, 10 nM T3, 2 days, relative to uninduced control) is given as “increase”; in experiment [3] it was “increase”. Also, the “GH mRNA levels on exposure to T3” value in experiment [2] is “increase”. The “GH3 proliferation on exposure to T3” value in experiment [4] is “increased proliferation”.

Values taken from patent publication US7754443B2, “Serum replacement for thyroid hormone-responsive cell culture” (University of Victoria Innovation and Development …, priority 2005, dated 2010).
